Laboratory results reported in ChEMBL document CHEMBL1127118 (Bioorg Med Chem Lett, 1993).
Several values for one entry are separate records, joined by “and”; a condition that tells them apart may be missing. Identical values can stand only once.

Key:
[1] = target: T1, 5-hydroxytryptamine receptor 1A (Rattus norvegicus, UniProt P19327); experiment: Displacement of [3H]8-OH-DPAT from rat hippocampal 5-hydroxytryptamine 1A receptor; type: tissue-based, Hippocampus
T1 sequence (P19327 whole entry): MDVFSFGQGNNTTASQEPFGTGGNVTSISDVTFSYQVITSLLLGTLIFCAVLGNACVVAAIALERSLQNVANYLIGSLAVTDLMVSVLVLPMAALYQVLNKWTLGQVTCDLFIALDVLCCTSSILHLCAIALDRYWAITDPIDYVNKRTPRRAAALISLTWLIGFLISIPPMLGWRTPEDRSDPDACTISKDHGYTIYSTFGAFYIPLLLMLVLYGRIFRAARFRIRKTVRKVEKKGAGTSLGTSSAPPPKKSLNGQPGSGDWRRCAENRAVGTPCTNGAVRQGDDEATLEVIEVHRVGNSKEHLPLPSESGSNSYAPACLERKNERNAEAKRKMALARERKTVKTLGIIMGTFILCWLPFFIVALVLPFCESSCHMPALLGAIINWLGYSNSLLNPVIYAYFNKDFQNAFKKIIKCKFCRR

[2] = target: 5-hydroxytryptamine receptor 1B (Rattus norvegicus, UniProt P28564); experiment: Binding affinity against 5-hydroxytryptamine 1B receptor in rat striatal membranes using [3H]5-HT as radioligand; type: cell membranes, Striatum, Membrane
Chain of 5-hydroxytryptamine receptor 1B (P28564 whole entry): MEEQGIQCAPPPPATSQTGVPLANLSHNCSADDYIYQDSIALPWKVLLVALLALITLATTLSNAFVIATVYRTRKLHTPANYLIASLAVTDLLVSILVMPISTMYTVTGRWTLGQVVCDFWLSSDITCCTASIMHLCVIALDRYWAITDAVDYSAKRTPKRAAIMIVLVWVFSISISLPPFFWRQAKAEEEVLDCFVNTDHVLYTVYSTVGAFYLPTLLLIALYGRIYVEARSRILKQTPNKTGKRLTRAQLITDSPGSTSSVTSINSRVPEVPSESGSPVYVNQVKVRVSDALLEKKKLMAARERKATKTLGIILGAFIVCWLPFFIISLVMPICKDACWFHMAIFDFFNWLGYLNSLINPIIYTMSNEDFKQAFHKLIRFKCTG

[3] = target: T1, 5-hydroxytryptamine receptor 1A; experiment: The compound was evaluated for binding affinity against 5-hydroxytryptamine 1A receptor in rat hippocampal membranes using [3H]8-OH-DPAT as radioligand in the presence of 1 mM of MnCl2; type: cell membranes, Hippocampus
[4] = target: T1, 5-hydroxytryptamine receptor 1A; experiment: The compound was evaluated for binding affinity against 5-hydroxytryptamine 1A receptor in rat hippocampal membranes using [3H]8-OH-DPAT as radioligand in the presence of 3*10e-5 M GTP gamma S; type: cell membranes, Hippocampus

| SMILES | Ki [1] | Ki [2] | Ki [3] | Ki [4] |
| --- | --- | --- | --- | --- |
| COc1c2c(cc3ccccc13)CCC(N)C2 (stereo not drawn) | 2520 nM | 23 nM | – | – |
| COc1cccc2c1CC(N)CC2 (stereo not drawn) | 158 nM | 902 nM | – | – |
| CCCN(CCC)C1CCc2c(c(OC)cc3ccccc23)C1 (stereo not drawn) | 1300 nM | 6340 nM | – | – |
| CCCN(CCC)C1CCc2c(C)ccc(OC)c2C1 (stereo not drawn) | 115 nM | 575 nM | – | – |
| COc1cc2ccccc2c2c1CC(N)CC2 (stereo not drawn) | 1060 nM | 76.3 nM | – | – |
| CCCN(CCC)C1CCc2cccc(OC)c2C1 (stereo not drawn) | 3.05 nM | 3970 nM | – | – |
| CCCN(CCC)C1CCc2c(C)ccc(O)c2C1 (stereo not drawn) | 18.4 nM and 30.8 nM | > 10000 nM | 46.6 nM | 81.1 nM |
| CCCN(CCC)C1CCc2cc3ccccc3c(O)c2C1 (stereo not drawn) | 2520 nM | > 1000 nM | – | – |
| CC(C)(C)NCC(O)COc1cccc2c1SCCC2 (stereo not drawn) [TERTATOLOL] | 18.2 nM | – | 7.71 nM | 37.6 nM |
| COc1ccc(C)c2c1CC(N)CC2 (stereo not drawn) | 436 nM | > 10000 nM | – | – |
